Experimental data from patent US11634396B2 (priority 2021, dated 2023).

biological target: human mOR (Homo sapiens (Human), UniProt P35372); assay: cell-based; details: not given
Sequence (P35372 whole entry): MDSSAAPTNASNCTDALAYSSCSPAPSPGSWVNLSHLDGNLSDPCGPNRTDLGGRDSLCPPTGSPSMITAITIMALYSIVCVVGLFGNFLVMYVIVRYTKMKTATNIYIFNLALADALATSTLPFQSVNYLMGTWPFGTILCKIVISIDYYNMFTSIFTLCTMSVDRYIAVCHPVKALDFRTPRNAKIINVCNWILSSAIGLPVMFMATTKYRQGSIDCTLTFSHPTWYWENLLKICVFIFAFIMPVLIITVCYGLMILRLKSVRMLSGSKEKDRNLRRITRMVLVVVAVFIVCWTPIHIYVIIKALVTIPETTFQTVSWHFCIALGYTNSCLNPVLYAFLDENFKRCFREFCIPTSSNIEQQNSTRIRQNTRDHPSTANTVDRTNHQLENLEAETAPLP

`CN(C)[C@H](CNC(=O)C[C@H](c1ccncc1)C1CC1)Cc1ccc(O)c(Cl)c1` [Compound 277, (S)-N-((S)-3-(3-chloro-4-hydroxyphenyl)-2-(dimethylamino)propyl)-3-cyclopropyl-3-(pyridin-4-yl)propanamide] and `CC(C)[C@H](CC(=O)NC[C@H](Cc1ccc(O)c(Cl)c1)N(C)C)c1cccnc1` [Compound 276, (S)-N-((S)-3-(3-chloro-4-hydroxyphenyl)-2-(dimethylamino)propyl)-4-methyl-3-(pyridin-3-yl)pentanamide] cannot be ordered by IC50: < 300 nM for the first, < 300 nM for the second.

Compared with `CNC(=O)c1ccc(C[C@@H](CNC(=O)C[C@@H](CC2CC2)c2cccnc2)N(C)C)c(C)c1` [Compound 133, 4-((S)-3-((R)-4-cyclopropyl-3-(pyridin-3-yl)butanamido)-2-(dimethylamino)propyl)-N,3-dimethylbenzamide], `CNC(=O)c1ccc(C[C@@H](CNC(=O)CC(c2ccncc2)C2(C(F)(F)F)CC2)N(C)C)c(C)c1` (stereo partly drawn) [Compound 134, 4-((2S)-2-(dimethylamino)-3-(3-(pyridin-4-yl)-3-(1-(trifluoromethyl)cyclopropyl)propanamido)propyl)-N,3-dimethylbenzamide] is lower in IC50: > 3000 nM for the first, < 300 nM for the second.

First: CN(C)[C@H](CNC(=O)CC(c1cccnc1)C1(C(F)(F)F)CC1)Cc1cc(F)c(C(N)=O)c(F)c1 (stereo partly drawn) [Compound 50, 4-[(2S)-2-(dimethylamino)-3-[3-(pyridin-3-yl)-3-[1-(trifluoromethyl)cyclopropyl]propanamido]propyl]-2,6-difluorobenzamide]
Second: Cc1cc(O)cc(C)c1C[C@@H](CNC(=O)C[C@H](c1cccnc1)C1(C(F)(F)F)CC1)N(C)C [Compound 242, (R)-N-((S)-2-(dimethylamino)-3-(4-hydroxy-2,6-dimethylphenyl)propyl)-3-(pyridin-3-yl)-3-(1-(trifluoromethyl)cyclopropyl)propanamide]
The IC50 of the first is higher: > 3000 nM for the first, < 300 nM for the second. The second is the more potent here.

Going from `CN(C)[C@H](CNC(=O)C[C@H](c1cccnc1)C1(C(F)(F)F)CC1)Cc1ccc2[nH]ncc2c1F` [Compound 195, (R)-N-((S)-2-(dimethylamino)-3-(4-fluoro-1H-indazol-5-yl)propyl)-3-(pyridin-3-yl)-3-(1-(trifluoromethyl)cyclopropyl)propanamide] to `COc1ccc(C[C@@H](CNC(=O)C[C@H](c2cccnc2)C2(C(F)(F)F)CC2)N(C)C)c(Cl)c1F` [Compound 259, (R)-N-((S)-3-(2-chloro-3-fluoro-4-methoxyphenyl)-2-(dimethylamino)propyl)-3-(pyridin-3-yl)-3-(1-(trifluoromethyl)cyclopropyl)propanamide], the IC50 rises from < 300 nM to > 3000 nM.

`CN(C)[C@H](CNC(=O)CC(c1ccc(C(F)(F)F)nc1)C1(C(F)(F)F)CC1)Cc1ccc(O)cc1` (stereo partly drawn) [Compound 314, N-((S)-2-(dimethylamino)-3-(4-hydroxyphenyl)propyl)-3-(1-(trifluoromethyl)cyclopropyl)-3-(6-(trifluoromethyl)pyridin-3-yl)propanamide] and `Cc1ccc([C@@H](CC(=O)NC[C@H](Cc2ccc(O)cc2)N(C)C)C2(C(F)(F)F)CC2)cn1` [Compound 302, (R)-N-((S)-2-(dimethylamino)-3-(4-hydroxyphenyl)propyl)-3-(6-methylpyridin-3-yl)-3-(1-(trifluoromethyl)cyclopropyl) propanamide] cannot be ordered by IC50: < 300 nM for the first, < 300 nM for the second.

`CN(C)[C@H](CNC(=O)CC(c1ncccn1)C1(C(F)(F)F)CC1)Cc1ccc(C(N)=O)cc1Cl` (stereo partly drawn) [Compound 27, 3-chloro-4-((2S)-2-(dimethylamino)-3-(3-(pyrimidin-2-yl)-3-(1-(trifluoromethyl)cyclopropyl)propanamido)propyl)benzamide] and `Cc1cc(O)ccc1C[C@@H](CNC(=O)CC(c1ncccn1)C1(C(F)(F)F)CC1)N(C)C` (stereo partly drawn) [Compound 271, N-((S)-2-(dimethylamino)-3-(4-hydroxy-2-methylphenyl)propyl)-3-(pyrimidin-2-yl)-3-(1-(trifluoromethyl)cyclopropyl)propanamide] cannot be ordered by IC50: < 300 nM for the first, < 300 nM for the second.

`Cc1cc(O)ccc1C[C@@H](CNC(=O)C[C@H](c1ccoc1)C1(C(F)(F)F)CC1)N(C)C` [Compound 265, (R)-N-((S)-2-(dimethylamino)-3-(4-hydroxy-2-methylphenyl)propyl)-3-(furan-3-yl)-3-(1-(trifluoromethyl)cyclopropyl)propanamide] and `CNC(=O)c1ccc(C[C@@H](CNC(=O)C[C@H](c2ccc(C)nc2)C2(C(F)(F)F)CC2)N(C)C)c(Cl)c1` [Compound 113, 3-chloro-4-((S)-2-(dimethylamino)-3-((R)-3-(6-methylpyridin-3-yl)-3-(1-(trifluoromethyl)cyclopropyl)propanamido)propyl)-N-methylbenzamide] cannot be ordered by IC50: < 300 nM for the first, < 300 nM for the second.

`CN(C)[C@H](CNC(=O)C[C@H](c1cncs1)C1(C(F)(F)F)CC1)Cc1ccc(C(N)=O)c(F)c1` [Compound 55, 4-((S)-2-(dimethylamino)-3-((S)-3-(thiazol-5-yl)-3-(1-(trifluoromethyl)cyclopropyl)propanamido)propyl)-2-fluorobenzamide] and `CN(C)[C@H](CNC(=O)CC(c1ncccn1)C1(C(F)(F)F)CC1)Cc1ccc(C(N)=O)c(F)c1` (stereo partly drawn) [Compound 71, 4-[(2S)-2-(dimethylamino)-3-[3-(pyrimidin-2-yl)-3-[1-(trifluoromethyl)cyclopropyl]propanamido]propyl]-2-fluorobenzamide] cannot be ordered by IC50: < 300 nM for the first, < 300 nM for the second.

First: CC(C)[C@H](CC(=O)NC[C@H](Cc1ccc(C(N)=O)c(F)c1)N(C)C)c1cccnc1 [Compound 78, 4-[(2S)-2-(dimethylamino)-3-[(3S)-4-methyl-3-(pyridin-3-yl)pentanamido]propyl]-2-fluorobenzamide]
Second: CC(C)C[C@H](CC(=O)NC[C@H](Cc1ccc(O)cc1)N(C)C)c1cccnc1 [Compound 297, (R)-N-((S)-2-(dimethylamino)-3-(4-hydroxyphenyl)propyl)-5-methyl-3-(pyridin-3-yl)hexanamide]
The IC50 of the first is higher: > 3000 nM for the first, < 300 nM for the second.

`Cc1ncc([C@@H](CC(=O)NC[C@H](Cc2ccc(C(N)=O)c(F)c2C)N(C)C)C2(C(F)(F)F)CC2)cn1` [Compound 44, 4-((S)-2-(dimethylamino)-3-((R)-3-(2-methylpyrimidin-5-yl)-3-(1-(trifluoromethyl)cyclopropyl)propanamido)propyl)-2-fluoro-3-methylbenzamide] and `Cc1ncc([C@@H](CC(=O)NC[C@H](Cc2ccc(C(N)=O)c(F)c2F)N(C)C)C2(C(F)(F)F)CC2)cn1` [Compound 3, 4-((S)-2-(dimethylamino)-3-((R)-3-(2-methylpyrimidin-5-yl)-3-(1-(trifluoromethyl)cyclopropyl)propanamido)propyl)-2,3-difluorobenzamide] cannot be ordered by IC50: < 300 nM for the first, < 300 nM for the second.

`Cc1c(C[C@@H](CNC(=O)C[C@H](c2cccnc2)C2(C(F)(F)F)CC2)N(C)C)ccc2c1CC(=O)N2` [Compound 180, (R)-N-((S)-2-(dimethylamino)-3-(4-methyl-2-oxoindolin-5-yl)propyl)-3-(pyridin-3-yl)-3-(1-(trifluoromethyl)cyclopropyl)propanamide] and `CN(C)[C@H](CNC(=O)CC(c1ccncc1)C1(C(F)(F)F)CC1)Cc1ccc(C(N)=O)c(F)c1Cl` (stereo partly drawn) [Compound 19, 3-chloro-4-[(2S)-2-(dimethylamino)-3-[3-(pyridin-4-yl)-3-[1-(trifluoromethyl)cyclopropyl]propanamido]propyl]-2-fluorobenzamide] cannot be ordered by IC50: < 300 nM for the first, < 300 nM for the second.

`Cc1ncc([C@@H](CC(=O)NC[C@H](Cc2ccc(C(N)=O)c(F)c2C)N(C)C)C2(C(F)(F)F)CC2)s1` [Compound 43, 4-((S)-2-(dimethylamino)-3-((S)-3-(2-methylthiazol-5-yl)-3-(1-(trifluoromethyl)cyclopropyl)propanamido)propyl)-2-fluoro-3-methylbenzamide] and `Cc1c(C[C@@H](CNC(=O)C[C@@H](c2cncc(F)c2)C(C)(C)C)N(C)C)ccc(C(N)=O)c1F` [Compound 45, 4-((S)-2-(dimethylamino)-3-((R)-3-(5-fluoropyridin-3-yl)-4,4-dimethylpentanamido)propyl)-2-fluoro-3-methylbenzamide] cannot be ordered by IC50: < 300 nM for the first, < 300 nM for the second.

same assay, conditions: CHO Tag-lite human mOR stable cell line; forskolin 4 μM and DAMGO at EC90; read-out: mOR cAMP Antagonist Assay IC50

`Cc1ncc([C@@H](CC(=O)NC[C@H](Cc2cc3cn[nH]c3cc2Cl)N(C)C)C2(C(F)(F)F)CC2)cn1` [Compound 233, (R)-N-((S)-3-(6-chloro-H-indazol-5-yl)-2-(dimethylamino)propyl)-3-(2-methylpyrimidin-5-yl)-3-(1-(trifluoromethyl)cyclopropyl) propanamide] and `CN(C)[C@H](CNC(=O)C[C@H](c1ccncc1)C1(C(F)(F)F)CC1)Cc1ccc2[nH]ncc2c1Cl` [Compound 191, (R)-N-((S)-3-(4-chloro-1H-indazol-5-yl)-2-(dimethylamino)propyl)-3-(pyridin-4-yl)-3-(1-(trifluoromethyl)cyclopropyl)propanamide] cannot be ordered by IC50: < 300 nM for the first, < 300 nM for the second.

Compared with `CN(C)[C@H](CNC(=O)C[C@H](c1cccnc1)C1CC1)Cc1ccc2[nH]ncc2c1` [Compound 207, (S)-3-cyclopropyl-N-((S)-2-(dimethylamino)-3-(1H-indazol-5-yl)propyl)-3-(pyridin-3-yl)propanamide], `CC(C)C[C@H](CC(=O)NC[C@H](Cc1ccc(C(N)=O)c(F)c1)N(C)C)c1cccnc1` [Compound 60, 4-((S)-2-(dimethylamino)-3-((R)-5-methyl-3-(pyridin-3-yl)hexanamido)propyl)-2-fluorobenzamide] is lower in IC50: > 3000 nM for the first, < 300 nM for the second.

First: CN(C)[C@H](CNC(=O)C[C@@H](c1cncc(F)c1)C(C)(C)C)Cc1ccc(C(N)=O)c(F)c1 [Compound 63, 4-((S)-2-(dimethylamino)-3-((R)-3-(5-fluoropyridin-3-yl)-4,4-dimethylpentanamido)propyl)-2-fluorobenzamide]
Second: CN(C)[C@H](CNC(=O)CC(c1ncccn1)C1(C(F)(F)F)CC1)Cc1ccc2c(c1)CC(=O)N2 (stereo partly drawn) [Compound 188, N-((S)-2-(dimethylamino)-3-(2-oxoindolin-5-yl)propyl)-3-(pyrimidin-2-yl)-3-(1-(trifluoromethyl)cyclopropyl)propenamide]
The IC50 of the first is lower: < 300 nM for the first, 300 to 3000 nM for the second.
